Measurements as given in the NIST ThermoML archive (doi:10.1016/j.jct.2008.07.005).
Numbers after ± are expanded uncertainties.

Columns and labels:
[1] = xn = mol fraction of the nth substance listed; settings: 283.15 K; 98.93 kPa; Liquid; x2 = 0

Question: Which mass density [1] does the source give for `O` [water] + OCC(O)CO here?
Answer: The mass density was 999.7 ± 1.3 kg/m3.

Question: Which mass density [1] does the source give for `O` [water] + CC(O)CO here?
Answer: Its mass density is 999.7 ± 1.3 kg/m3.

Question: Which mass density (283.15 K, 101.33 kPa, Liquid) does the source give for `CC(O)CO` (centres undefined) [1,2-propanediol] here?
Answer: Its mass density is 1043.32 ± 1.5 kg/m3.

Question: What about the mass density (288.15 K, 101.33 kPa, Liquid) of the same compound?
Answer: Its mass density is 1040.45 ± 1.5 kg/m3.

Question: And the mass density (293.15 K, 101.33 kPa, Liquid)?
Answer: The mass density was 1036.15 ± 1.4 kg/m3.

Question: And the mass density (298.15 K, 101.33 kPa, Liquid)?
Answer: The mass density was 1032.71 ± 1.5 kg/m3.

Question: And the mass density (303.15 K, 101.33 kPa, Liquid)?
Answer: Its mass density is 1029.62 ± 1.5 kg/m3.

Question: What about the mass density (308.15 K, 101.33 kPa, Liquid) of the same compound?
Answer: Its mass density is 1025.13 ± 1.6 kg/m3.

Question: What does the source list for `CCCO` [propan-1-ol]?
Answer: mass density (283.15 K, 101.33 kPa, Liquid): 811.34 ± 1.2 kg/m3; mass density (288.15 K, 101.33 kPa, Liquid): 807.51 ± 1.1 kg/m3; mass density (293.15 K, 101.33 kPa, Liquid): 803.65 ± 1.1 kg/m3; mass density (298.15 K, 101.33 kPa, Liquid): 799.67 ± 1.1 kg/m3; mass density (303.15 K, 101.33 kPa, Liquid): 795.95 ± 1.2 kg/m3; mass density (308.15 K, 101.33 kPa, Liquid): 791.57 ± 1.2 kg/m3

Question: Which mass density [1] does the source give for `O` [water] + OCCCO here?
Answer: Its mass density is 999.7 ± 1.3 kg/m3.

Question: For `O` [water], which mass density (283.15 K, 98.93 kPa, Liquid) is on record?
Answer: Its mass density is 999.7 ± 1.3 kg/m3.

Question: For `OCC(O)CO` [glycerol], which mass density (283.15 K, 101.33 kPa, Metastable liquid) is on record?
Answer: Its mass density is 1266.31 ± 2.2 kg/m3.

Question: And the mass density (288.15 K, 101.33 kPa, Metastable liquid)?
Answer: Its mass density is 1264.39 ± 2.1 kg/m3.

Question: What about the mass density (293.15 K, 101.33 kPa, Metastable liquid) of the same compound?
Answer: Its mass density is 1262.53 ± 2.1 kg/m3.

Question: What about the mass density (298.15 K, 101.33 kPa, Metastable liquid) of the same compound?
Answer: The mass density was 1258.73 ± 2.1 kg/m3.

Question: And the mass density (303.15 K, 101.33 kPa, Metastable liquid)?
Answer: Its mass density is 1254.9 ± 2.2 kg/m3.

Question: What about the mass density (308.15 K, 101.33 kPa, Metastable liquid) of the same compound?
Answer: The mass density was 1252.65 ± 2.2 kg/m3.

Question: For `O` [water] + CCCO, which mass density [1] is on record?
Answer: Its mass density is 999.69 ± 1.3 kg/m3.

Question: Which results are given for `OCCCO` [propan-1,3-diol]?
Answer: mass density (283.15 K, 101.33 kPa, Liquid): 1056.92 ± 1.7 kg/m3; mass density (288.15 K, 101.33 kPa, Liquid): 1055.67 ± 1.6 kg/m3; mass density (293.15 K, 101.33 kPa, Liquid): 1053.64 ± 1.6 kg/m3; mass density (298.15 K, 101.33 kPa, Liquid): 1050.37 ± 1.7 kg/m3; mass density (303.15 K, 101.33 kPa, Liquid): 1047.58 ± 1.7 kg/m3; mass density (308.15 K, 101.33 kPa, Liquid): 1044.25 ± 1.8 kg/m3
